{"source": "patent EP0490581B1", "about": "“Cosmetic composition” (UNILEVER PLC, priority 1990, dated 1992)", "tested_on": "isolated human hair follicles", "experiment": "in vitro hair follicle growth test (elongation of isolated hair follicles in culture medium)", "format": "cell-based", "description": "The effect of compounds on hair growth was assessed using an in vitro test which measures the elongation of isolated human hair follicles in a culture medium.\nThis test includes the important step of isolating hair follicles having an undamaged hair bulb from skin, preferably from human skin, by microdissection.\nThe critical step of separating the hair follicle with intact undamaged hair bulb from the subcutaneous fatty tissue in which it is situated accordingly involves severing the hair shaft of the follicle at a point below the epidermis of skin surface, so as to leave the hair bulb intact and undamaged while still bearing a portion of the hair shaft.\nPreferably, the hair shaft of the follicle is severed at the dermal-subcutaneous fat interface.\nAny suitable cutting instrument can be employed to sever the hair shaft in this manner, but a keratotome or a scalpel are preferred.\nThe hair bulb with a hair shaft stump attached is then isolated from the skin by mechanically separating the hair from loosely adhering subcutaneous fat which normally surrounds the hair bulb. This is achieved after the dermis or upper layer of the skin has been separated and removed, to avoid damaging the hair bulb as it is pulled away.\nThe hair bulb together with hair shaft stump attached, is then transferred in an otherwise undamaged and fully functioning, viable state to a nutrient medium.\nThe hair follicles isolated by the technique described herein are transferred to a suitable culture medium for subsequent testing of substances that can then influence their future development.\nThe procedure now to be described represents a preferred method of culture and testing of hair growth.\nIn accordance with the preferred method of culture, isolated hair follicles are maintained in 500µl of Williams E medium, either with or without a test hair growth substance, at 37°C in an atmosphere of 5% CO₂ + 95% air in individual wells of a 24 multiwell dish (Corning), which permits detailed measurements to be made of the length of individual hair follicles.\nWilliams E medium is available from FLOW Laboratory under Catalogue No. 12-502. The formula of Williams E medium is described by Williams GM, et al., in Experimental Cell Research 69 (1971) on page 106.\nHair shaft length measurements can be made on these follicles, using a Nikon Diaphot inverted binocular or similar microscope with eye piece measuring graticules, […], during which time the follicles will signficiantly increase in length in response to a hair growth stimulant.\nThe response of an isolated hair follicle to a test substance, can accordingly be assessed by mesuring the increase in length, if any, in the presence of a test substance against a control. […]", "data": [{"molecule": "NC(=O)CC[C@H](N)C(=O)O", "note": "[Glutamine, glutamine]", "values": [{"measurement": "activity at 2000 µM", "setting": "144 h, 2mM in Williams E medium supplemented with glucose (50mM), relative to a control value of 1.0, mean of 5 follicles from each of 5 human subjects (25 follicles), read-out: Hair follicle growth after 6 days", "result": 400, "unit": "%"}, {"measurement": "hair growth, as compared with the control", "setting": "summary in words of the table's results, Williams E medium supplemented with glucose (50mM)", "result": "most effective"}]}, {"molecule": "CC(O)CC(=O)O", "note": "(stereo not shown) [Na 3-hydroxybutyrate]", "values": [{"measurement": "activity at 1000 µM", "setting": "144 h, 1 mM in Williams E medium supplemented with glucose (50mM), relative to a control value of 1.0, mean of 5 follicles from each of 5 human subjects (25 follicles), read-out: Hair follicle growth after 6 days", "result": 280, "unit": "%"}]}, {"molecule": "CCCCCCCCCCCCCCCC(=O)O", "note": "[Na palmitate]", "values": [{"measurement": "activity at 500 µM", "setting": "144 h, 0.5mM in Williams E medium supplemented with glucose (50mM), relative to a control value of 1.0, mean of 5 follicles from each of 5 human subjects (25 follicles), read-out: Hair follicle growth after 6 days", "result": 180, "unit": "%"}]}]}
